Measurements published in ChEMBL document CHEMBL2163215, “Mitigating hERG Inhibition: Design of Orally Bioavailable CCR5 Antagonists as Potent Inhibitors of R5 HIV-1 Replication” (ACS Med Chem Lett, 2012).
Activity calls are given as the source filed them. The calls are words filed in the database; no cut-off is given here.

Assays:
[1] = biological target: hERG (KCNH2) (Homo sapiens, UniProt Q12809); assay: Inhibition of human recombinant hERG expressed in CHO cells at 10 uM by automated patch clamp assay; conditions: CHO cells expressing human recombinant hERG
[2] = in vivo; conditions: dog, po, 12.5 umol/kg
Description: Oral bioavailability in dog at 12.5 umol/kg

[3] = Cytotoxicity against human PBMC
[4] = in vivo; conditions: dog, plasma
[5] = in vivo; conditions: dog, po
[6] = Volume of distribution in dog at 5 umol/kg, iv; conditions: in vivo
[7] = (§1) Fraction unbound in human plasma after 5 hrs
[8] = tested on: Human immunodeficiency virus 1; assay: Antiviral activity against R5 tropic HIV1 Ba-L infected human PBMC assessed as inhibition of viral replication by p-24 antigen specific ELISA; format: functional, organism-based; conditions: Human immunodeficiency virus 1, Ba-L
[9] = Half life in dog at 5 umol/kg, iv; conditions: in vivo
[10] = Clearance in dog at 5 umol/kg, iv; conditions: in vivo
[11] = biological target: T1, C-C chemokine receptor type 1 (Homo sapiens) (UniProt P32246); conditions: at 5 µM
T1 sequence (whole entry): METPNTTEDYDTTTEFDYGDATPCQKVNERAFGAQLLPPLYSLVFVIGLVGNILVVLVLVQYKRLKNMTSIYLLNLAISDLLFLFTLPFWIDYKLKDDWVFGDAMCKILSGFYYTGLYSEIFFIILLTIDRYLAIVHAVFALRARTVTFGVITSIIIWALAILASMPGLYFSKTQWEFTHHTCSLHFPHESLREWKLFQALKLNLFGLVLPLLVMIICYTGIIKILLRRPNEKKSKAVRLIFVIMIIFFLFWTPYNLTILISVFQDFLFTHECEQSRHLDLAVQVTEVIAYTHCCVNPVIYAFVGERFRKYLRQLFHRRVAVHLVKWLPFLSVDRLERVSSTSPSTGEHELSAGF
Description: Antagonist activity at CCR1 at 5 uM by calcium flux assay

[12] = biological target: C-C chemokine receptor type 2 (Homo sapiens) (UniProt P41597); conditions: at 5 µM
Description: Antagonist activity at CCR2b at 5 uM by calcium flux assay

[13] = biological target: C-X-C chemokine receptor type 4 (Homo sapiens) (UniProt P61073); conditions: at 5 µM
Description: Antagonist activity at CXCR4 at 5 uM by calcium flux assay

[14] = biological target: T2, C-C chemokine receptor type 4 (Homo sapiens) (UniProt P51679); conditions: at 5 µM
T2 sequence (whole entry): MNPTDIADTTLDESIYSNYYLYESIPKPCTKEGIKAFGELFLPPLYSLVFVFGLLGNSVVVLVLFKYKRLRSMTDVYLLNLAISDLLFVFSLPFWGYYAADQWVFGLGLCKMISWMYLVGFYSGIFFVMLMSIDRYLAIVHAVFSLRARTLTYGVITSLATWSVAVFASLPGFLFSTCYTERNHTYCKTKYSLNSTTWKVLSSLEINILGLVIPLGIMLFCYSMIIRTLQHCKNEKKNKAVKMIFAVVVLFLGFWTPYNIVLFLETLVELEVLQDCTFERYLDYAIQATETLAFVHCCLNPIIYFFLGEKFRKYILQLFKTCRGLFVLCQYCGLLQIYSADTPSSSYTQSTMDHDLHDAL
Description: Antagonist activity at CCR4 at 5 uM by calcium flux assay

[15] = biological target: T3, C-X-C chemokine receptor type 2 (Homo sapiens) (UniProt P25025); conditions: at 5 µM
T3 sequence (whole entry): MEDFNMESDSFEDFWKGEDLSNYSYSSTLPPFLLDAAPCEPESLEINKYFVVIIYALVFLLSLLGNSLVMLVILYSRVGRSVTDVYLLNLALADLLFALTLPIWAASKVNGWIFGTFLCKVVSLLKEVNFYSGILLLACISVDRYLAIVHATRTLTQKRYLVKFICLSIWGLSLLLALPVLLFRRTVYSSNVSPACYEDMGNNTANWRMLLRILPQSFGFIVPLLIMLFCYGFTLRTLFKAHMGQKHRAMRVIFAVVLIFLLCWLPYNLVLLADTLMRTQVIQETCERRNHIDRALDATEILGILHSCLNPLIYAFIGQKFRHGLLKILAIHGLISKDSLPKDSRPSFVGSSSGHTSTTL
Description: Antagonist activity at CXCR2 at 5 uM by calcium flux assay

[16] = biological target: T4, C-X-C chemokine receptor type 1 (Homo sapiens) (UniProt P25024); conditions: at 5 µM
T4 sequence (whole entry): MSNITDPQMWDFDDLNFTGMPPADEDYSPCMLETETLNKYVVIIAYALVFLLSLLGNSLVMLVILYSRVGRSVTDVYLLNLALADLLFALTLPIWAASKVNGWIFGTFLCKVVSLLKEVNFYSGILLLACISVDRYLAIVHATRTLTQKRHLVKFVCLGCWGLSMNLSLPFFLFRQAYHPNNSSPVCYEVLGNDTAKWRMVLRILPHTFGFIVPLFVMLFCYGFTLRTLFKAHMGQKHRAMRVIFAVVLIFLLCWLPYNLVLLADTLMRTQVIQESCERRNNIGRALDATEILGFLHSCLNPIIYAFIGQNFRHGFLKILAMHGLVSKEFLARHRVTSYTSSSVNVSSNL
Description: Antagonist activity at CXCR1 at 5 uM by calcium flux assay

[17] = tested on: Plasma; assay: as §1; conditions: 5 h
[18] = Cardiotoxicity in dog purkinje fiber assessed as change in action potential amplitude at 10 uM measured at basic cycle length of 0.5 seconds
[19] = Cardiotoxicity in dog purkinje fiber assessed as change in action potential duration at 60% at 10 uM measured at basic cycle length of 2 seconds
[20] = Toxicity in rat administered for 7 days; conditions: in vivo
[21] = Cardiotoxicity in dog purkinje fiber assessed as change in action potential duration at 90% at 10 uM measured at basic cycle length of 2 seconds
[22] = Cardiotoxicity in dog purkinje fiber assessed as change in action potential duration at 60% at 10 uM measured at basic cycle length of 0.5 seconds
[23] = Cardiotoxicity in dog purkinje fiber assessed as change in resting membrane potential at 10 uM measured at basic cycle length of 0.5 seconds
[24] = Cardiotoxicity in dog purkinje fiber assessed as change in action potential duration at 90% at 10 uM measured at basic cycle length of 0.5 seconds
[25] = Cardiotoxicity in dog purkinje fiber assessed as change in action potential duration at 60% at 10 uM measured at basic cycle length of 1 second
[26] = Cardiotoxicity in dog purkinje fiber assessed as change in action potential duration at 90% at 10 uM measured at basic cycle length of 1 second
[27] = Cardiotoxicity in dog purkinje fiber assessed as change in resting membrane potential at 10 uM measured at basic cycle length of 2 seconds
[28] = Cardiotoxicity in dog purkinje fiber assessed as change in resting membrane potential at 10 uM measured at basic cycle length of 1 second
[29] = Cardiotoxicity in dog purkinje fiber assessed as change in action potential amplitude at 10 uM measured at basic cycle length of 1 second
[30] = Cardiotoxicity in dog purkinje fiber assessed as change in action potential amplitude at 10 uM measured at basic cycle length of 2 seconds
[31] = biological target: Voltage-gated inwardly rectifying potassium channel KCNH2 (Homo sapiens, UniProt Q12809); assay: Inhibition of human recombinant hERG expressed in CHO cells by automated patch clamp assay
Sequence of Voltage-gated inwardly rectifying potassium channel KCNH2 (Q12809 whole entry): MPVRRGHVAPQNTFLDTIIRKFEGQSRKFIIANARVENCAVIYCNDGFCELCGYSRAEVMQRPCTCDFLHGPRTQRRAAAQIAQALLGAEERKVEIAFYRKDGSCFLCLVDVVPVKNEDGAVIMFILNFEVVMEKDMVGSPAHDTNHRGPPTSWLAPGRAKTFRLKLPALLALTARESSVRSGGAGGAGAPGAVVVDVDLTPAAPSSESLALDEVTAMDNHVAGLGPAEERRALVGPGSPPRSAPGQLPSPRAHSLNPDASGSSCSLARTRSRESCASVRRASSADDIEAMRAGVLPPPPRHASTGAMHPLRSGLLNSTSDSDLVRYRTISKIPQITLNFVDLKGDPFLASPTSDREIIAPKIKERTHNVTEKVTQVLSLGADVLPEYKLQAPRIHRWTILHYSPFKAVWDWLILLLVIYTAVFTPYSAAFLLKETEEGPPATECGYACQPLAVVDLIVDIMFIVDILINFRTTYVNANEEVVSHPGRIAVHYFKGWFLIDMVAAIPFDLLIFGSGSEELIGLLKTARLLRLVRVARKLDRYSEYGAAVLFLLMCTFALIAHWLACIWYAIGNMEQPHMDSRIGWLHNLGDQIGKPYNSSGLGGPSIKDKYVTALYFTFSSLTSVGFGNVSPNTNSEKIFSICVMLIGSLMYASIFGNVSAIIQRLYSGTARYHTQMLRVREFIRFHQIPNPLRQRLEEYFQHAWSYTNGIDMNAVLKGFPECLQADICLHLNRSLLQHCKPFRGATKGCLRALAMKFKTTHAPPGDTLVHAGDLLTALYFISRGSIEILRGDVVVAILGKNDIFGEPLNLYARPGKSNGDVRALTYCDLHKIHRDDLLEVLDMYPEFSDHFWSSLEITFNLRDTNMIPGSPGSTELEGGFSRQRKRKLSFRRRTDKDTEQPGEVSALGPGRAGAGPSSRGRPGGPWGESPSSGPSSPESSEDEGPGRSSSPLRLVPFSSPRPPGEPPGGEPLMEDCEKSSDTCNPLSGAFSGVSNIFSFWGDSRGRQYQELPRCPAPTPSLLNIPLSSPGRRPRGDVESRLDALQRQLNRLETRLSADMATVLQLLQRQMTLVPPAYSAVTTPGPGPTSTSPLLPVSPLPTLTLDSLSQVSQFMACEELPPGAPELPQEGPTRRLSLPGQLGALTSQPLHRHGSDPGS

Sequence of C-X-C chemokine receptor type 4 (Homo sapiens) (P61073 whole entry): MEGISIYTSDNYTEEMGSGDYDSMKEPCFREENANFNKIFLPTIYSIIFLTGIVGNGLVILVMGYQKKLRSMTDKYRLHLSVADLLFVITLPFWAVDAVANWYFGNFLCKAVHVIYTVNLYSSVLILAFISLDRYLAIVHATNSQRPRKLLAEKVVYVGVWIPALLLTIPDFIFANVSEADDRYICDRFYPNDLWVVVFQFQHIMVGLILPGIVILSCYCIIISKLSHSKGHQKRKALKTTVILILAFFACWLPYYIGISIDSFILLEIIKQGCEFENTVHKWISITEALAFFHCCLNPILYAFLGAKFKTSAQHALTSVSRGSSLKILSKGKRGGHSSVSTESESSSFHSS
Sequence of hERG (KCNH2) (Q12809 whole entry): as the sequence (Q12809 whole entry) above
Sequence of C-C chemokine receptor type 2 (Homo sapiens) (P41597 whole entry, looked up): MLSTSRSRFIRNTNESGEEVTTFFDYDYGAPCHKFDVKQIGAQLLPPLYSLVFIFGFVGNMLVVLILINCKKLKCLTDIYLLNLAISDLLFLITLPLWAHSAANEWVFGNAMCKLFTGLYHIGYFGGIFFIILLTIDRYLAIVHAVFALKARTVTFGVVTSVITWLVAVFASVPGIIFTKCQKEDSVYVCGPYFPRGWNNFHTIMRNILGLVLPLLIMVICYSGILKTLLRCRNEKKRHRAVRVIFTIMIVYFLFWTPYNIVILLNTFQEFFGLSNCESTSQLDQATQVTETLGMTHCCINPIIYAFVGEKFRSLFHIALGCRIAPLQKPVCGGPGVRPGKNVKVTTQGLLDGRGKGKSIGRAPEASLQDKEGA

For CONC(=O)N(Cc1ccsc1)C1CCN([C@H](C)CCNC(=O)c2c(C)cc(Cl)[n+]([O-])c2Cl)CC1, the inhibition at 10 µM [1] was 21%, the bioavailability [2] was 7% and the CC50 [3] was > 38500 nM. The AUC(0-inf) [4] was 0.37 µM·h, the Cmax [5] was 260 nM and the Vd [6] was 2.6 L/kg. For the same compound, the fraction unbound at 5 h [7] was 0.31, the IC50 [8] was 7.3 nM and the half-life [9] was 42 min. The clearance [10] was 40.3 mL/min/kg.

With CONC(=O)N(Cc1ccsc1)C1CCN([C@H](C)CCNC(=O)c2c(C)cc(Cl)nc2C)CC1 the inhibition [11] was “inactive”, the inhibition [12] was “inactive” and the inhibition [13] was “inactive”. The inhibition [14] was “inactive”, the inhibition [15] was “inactive” and the inhibition [16] was “inactive”. It also gave an IC50 [8] of 14.8 nM.

For CONC(=O)N(Cc1ccsc1)C1CCN([C@H](C)CCNC(=O)c2c(C)cc(C#N)nc2Cl)CC1, the bioavailability [2] was 60%, the CC50 [3] was > 38500 nM and the AUC(0-inf) [4] was 3.24 µM·h. For the same compound, the Cmax [5] was 1940 nM, the Vd [6] was 6.3 L/kg and the fraction unbound at 5 h [7] was 0.75. It also gave an IC50 [8] of 2.9 nM and a clearance [10] of 39.2 mL/min/kg.

With COCC(=O)N(Cc1ccsc1)C1CCN([C@H](C)CCNC(=O)c2c(C)cc(Cl)nc2C)CC1 the inhibition [11] was “inactive”, the inhibition [12] was “inactive” and the inhibition [13] was “inactive”. For the same compound, the inhibition [14] was “inactive”, the inhibition [15] was “inactive” and the inhibition [16] was “inactive”. The IC50 [8] was 38 nM.

In the case of Cc1cc(C#N)nc(C)c1C(=O)NCC[C@@H](C)N1CCC(N(Cc2ccsc2)C(=O)CC2CCOCC2)CC1, the inhibition at 10 µM [1] is reported as 61%, the CC50 [3] is reported as > 36200 nM and the fraction unbound at 5 h [7] is reported as 0.85. The IC50 [8] was 16.1 nM.

With COc1ccc(N(Cc2cnccc2C)C2CCN([C@H](C)CCNC(=O)c3c(C)ncnc3C)CC2)cc1 the inhibition at 10 µM [1] was 58%, the CC50 [3] was > 38300 nM and the Fu [17] was 83%. For the same compound, the IC50 [8] was 1830 nM.

With CC(=O)N(Cc1ccsc1)C1CCN([C@H](C)CCNC(=O)c2c(C)cc(Cl)nc2C)CC1 the IC50 [8] was 138 nM.

With Cc1cc(Cl)nc(C)c1C(=O)NCC[C@@H](C)N1CCC(N(Cc2ccsc2)C(=O)CC2CCOCC2)CC1 the inhibition at 10 µM [1] was 67%, the CC50 [3] was > 35600 nM and the fraction unbound at 5 h [7] was 0.8. It also gave an IC50 [8] of 22.5 nM.

In the case of COCCONC(=O)N(Cc1ccsc1)C1CCN([C@H](C)CCNC(=O)c2c(C)cc(Cl)nc2C)CC1, the inhibition [11] is reported as “inactive”, the inhibition [12] is reported as “inactive” and the inhibition [13] is reported as “inactive”. The CC50 [3] was > 34400 nM, the Activity [18] was 1.2 mV and the inhibition [14] was “inactive”. For the same compound, the Activity [19] was 24.2%, the NOAEL at 168 h [20] was ≥ 400 mg/kg and the Activity [21] was 22.6%. The Activity [22] was 12.2%, the inhibition [15] was “inactive” and the Activity [23] was -3.6 mV. The inhibition [16] was “inactive”, the Activity [24] was 10.5% and the Activity [25] was 18.1%. For the same compound, the Activity [26] was 16.5%, the Activity [27] was -2.7 mV and the fraction unbound at 5 h [7] was 0.43. For the same compound, the IC50 [8] was 21.3 nM, the Activity [28] was -2.8 mV and the Activity [29] was 1.3 mV. It also gave an Activity [30] of 2.4 mV.

In the case of COc1ccc(N(Cc2ccsc2)C2CCN([C@H](C)CCNC(=O)c3c(C)ncnc3C)CC2)cc1, the inhibition at 10 µM [1] is reported as 97%, the CC50 [3] is reported as > 38700 nM and the fraction unbound at 5 h [7] is reported as 0.91. The IC50 [8] was 65.9 nM.

With Cc1cc(Cl)nc(C)c1C(=O)NCC[C@@H](C)N1CCC(N(Cc2ccsc2)C(=O)NO)CC1 the inhibition at 10 µM [1] was 44%, the CC50 [3] was > 38500 nM and the fraction unbound at 5 h [7] was 0.4. The IC50 [8] was 344 nM.

With CONC(=O)N(Cc1ccsc1)C1CCN([C@H](C)CCNC(=O)c2c(C)cc(C(=O)NC(C)C)nc2C)CC1 the inhibition [11] was “inactive”, the inhibition [12] was “inactive” and the inhibition [13] was “inactive”. For the same compound, the inhibition [14] was “inactive”, the inhibition [15] was “inactive” and the inhibition [16] was “inactive”. For the same compound, the IC50 [8] was 4.8 nM.

With CNC(=O)N(Cc1ccsc1)C1CCN([C@H](C)CCNC(=O)c2c(C)cc(Cl)nc2C)CC1 the inhibition at 10 µM [1] was 73%, the IC50 [31] was 1600 nM and the CC50 [3] was > 40600 nM. For the same compound, the fraction unbound at 5 h [7] was 0.46 and the IC50 [8] was 15.5 nM.

With Cc1cc(Cl)nc(C)c1C(=O)NCC[C@@H](C)N1CCC(N(Cc2ccsc2)C(=O)Nc2cccnc2)CC1 the inhibition at 10 µM [1] was 20%, the CC50 [3] was > 32400 nM and the fraction unbound at 5 h [7] was 0.46. For the same compound, the IC50 [8] was 34.4 nM.
